Values quoted from earlier work, collected in patent US7229642B2, “Amino acid modulated extended release dosage form” (Scolr, Inc., priority 1999, dated 2007).
Where two headings read alike, the source gives them in different places.

Details: for HYDROPHOBIC VALUE: hydropathy scale of Pliska et al., J. Chromatog. 216, 79, 1981, glycine = 0; for CHARACTERIZATION (hydropathy): hydropathy characteristic in words

| SMILES | HYDROPHOBIC VALUE | CHARACTERIZATION (hydropathy) | CHARACTERIZATION (hydropathy) (listed as iso-leucine) | CHARACTERIZATION (hydropathy) (listed as glycine) |
| --- | --- | --- | --- | --- |
| O=C(O)[C@@H]1CCCN1 [Proline] | 0.84 | – | – | – |
| C[C@@H](O)[C@H](N)C(=O)O [Threonine] | −0.27 | Weakly Hydrophilic | – | – |
| NC(=O)C[C@H](N)C(=O)O [Asparagine] | −0.99 | – | – | – |
| N[C@@H](CS)C(=O)O [Cysteine] | 0.76 | – | – | – |
| C[C@H](N)C(=O)O [Alanine] | 0.35 | – | – | – |
| CSCC[C@H](N)C(=O)O [Methionine] | 1.10 | Moderately Hydrophobic | – | – |
| NCCCC[C@H](N)C(=O)O [Lysine] | −1.54 | – | – | – |
| CC[C@H](C)[C@H](N)C(=O)O [Isoleucine] | 1.83 | Strongly Hydrophobic | strongly hydrophobic | – |
| NCC(=O)O [Glycine] | 0 | Neutral, Balanced | – | neutral |
| N[C@@H](Cc1c[nH]cn1)C(=O)O [Histidine] | −0.65 | – | – | – |
| N[C@@H](Cc1ccc(O)cc1)C(=O)O [Tyrosine] | 0.39 | Weakly Hydrophobic | – | – |
| N[C@@H](CC(=O)O)C(=O)O [Aspartic acid] | −2.15 | strongly hydrophilic | – | – |
| N[C@@H](Cc1ccccc1)C(=O)O [Phenylalanine] | 1.69 | – | – | – |
| CC(C)[C@H](N)C(=O)O [Valine] | 1.32 | – | – | – |
| N[C@@H](Cc1c[nH]c2ccccc12)C(=O)O [Tryptophan] | 1.35 | – | – | – |
| N[C@@H](CO)C(=O)O [Serine] | −0.63 | – | – | – |
